Measurements reported in US9271953B2, “Methods for correction of organ dysfunction” (priority 2013, dated 2016).
Entries after “also recorded” stand apart in the source; their conditions may differ.

Columns and labels:
[1] = system: patients with connective tissue disorders and/or autonomic dysfunction; test: Patient studies / case studies with the oral compound; type: in vivo, human; conditions: patients with organ malfunction secondary to poor vagus nerve function
Protocol: The composition and method of use of the present invention is also unique because it corrects for these numerous causes of dysfunction and includes ingredients in the quantities and form required to work around the genetic, vascular, and/or co-morbid components involved. IBS/gastroparesis/constipation was initially targeted. In patient studies, a response to medication (a bowel movement) occurred within 2-12 hours, without exception. Patients were identified with a mix of co-morbid conditions including chronic fatigue syndrome, fibromyalgia, joint hypermobility and autonomic dysfunction.
The present composition was provided to a number of patients having certain diagnosed diseases, as summarized in Table 1 above and suffering from a variety of medical conditions or symptoms associated with those diseases, again, as summarized above.

[2] = system: post-ganglionic nicotinic acetylcholine receptors; test: Oral single agents in patients with damaged pre-ganglionic vagus nerve: organ function; type: in vivo, human
Text: In one embodiment of the invention, transdermal (topical) application of nicotine, applied near the lower right-hand corner of the abdomen stimulates the post-ganglionic nicotinic acetylcholinergic receptor controlling the ileocecal valve, for example, allowing the valve to open. Oral nicotine, however, is ineffective at stimulating the post-ganglionic nicotinic acetylcholinergic nerves in the abdomen, yet it exposes the patient to the direct (and negative) effect on the cerebellum.^38 In numerous patients tested, oral physostigmine or Huperzine A (both inhibitors of acetylcholinesterase, and thus indirect stimulators of both nicotinic and muscarinic acetylcholine receptors) were not effective in stimulating organ function when the pre-ganglionic portion of the vagus nerve was damaged. It is clear that in addition to inhibitors of acetylcholinesterase, other ingredients are necessary to stimulate organ function in this patient population. […] It was only through extensive testing that the inventor was able to discover the proper range of oral ingredients which were effective in stimulating these post-ganglionic nerves.

[3] = in vivo; cited from earlier work
[4] = system: post-ganglionic nicotinic acetylcholine receptors
Text: Nicotine is a powerful nicotinic agonist found in the leaves of the tobacco plant (Nicotiana tabacum).

IGF-1 = IGF-1 levels in Patient 1; type: in vivo, human; conditions: 2 units/day growth hormone, before compound
Text: Not intending to be bound by theory, and in no way a limitation of the present invention, the invention (excluding nicotine) can be used to stimulate production of human growth hormone, often found to be low in chronic pain syndromes, including disorders of connective tissue, “POTS”, “Hyperadrenergic POTS” and fibromyalgia. Rather than treating the patients with exogenous growth hormone, the present invention instead treats the source of the low growth hormone levels (as measured via IGF-1). Growth hormone levels can then return to normal and dysregulation of the hypothalamic-pituitary-adrenal axis is normalized. […]
Patient 1: Diagnoses: joint hypermobility (judged by the Beighton Scale), autonomic dysfunction (patient failed the Tilt Table Test of autonomic function) and visual and auditory hallucinations, hypothermia. […] Their liver enzymes and kidney function began to show abnormal readings, and pain at the site of the ileocecal valve began to occur. […]

In the case of `CC(=O)O[C@H](CC(=O)[O-])C[N+](C)(C)C` [Acetyl-L-Carnitine], the “organ function when Acetyl-L-Carnitine was added to the compound” value [1] is reported as “invariably achieved better organ function”.
In the case of `C/C=C1\[C@H]2C=C(C)C[C@]1(N)c1ccc(=O)[nH]c1C2` [Huperzine A], the response to medication ([2]; Patient 2, prescribed for mental fatigue) is reported as “no response” and the “stimulating organ function when the pre-ganglionic portion of the vagus nerve was damaged” value ([2]; oral, numerous patients tested) is reported as “not effective”.
In the case of `CN1CCCC1c1cccnc1` (centres unmarked) [nicotine, Nicotine], the lethal dosage [3] is given as 60 mg, the skin side effects ([4]; Patient 1, 7 g transdermal nicotine) is given as “intractable itching, redness, and skin welting” and the ileocecal valve opening ([4]; Patient 1, 7 g transdermal nicotine near the ileocecal valve) is given as “opened the valve overnight”. The “reversal of chronic constipation, gastroparesis, dysmotility, ileocecal valve and Sphincter of Oddi dysfunction: time” value ([4]; transdermal 3-21 mg, lower right-hand quadrant of abdomen) was “usually within hours”, the “opening of the ileocecal valve” value ([4]; transdermal 3-21 mg, patients with poor vagus nerve function, valve not physically damaged) was “never failed to open the ileocecal valve” and the “opening the ileocecal valve, arresting gastroparesis/chronic constipation” value ([2]; oral doses of nicotine) was “ineffective”. The “stimulating the post-ganglionic nicotinic acetylcholinergic nerves/receptors (organ function)” value ([2]; oral nicotine) was “ineffective; also recorded: not effective”.
With “growth hormone: exogenous growth hormone, 2 units/day” the “IGF-1 levels raised to the upper normal range” value (IGF-1) was “which it did”.
